Test results from patent US20230127046A1, “G9a INHIBITOR” (RIKEN, priority 2019, published 2023).

Biological target: T1, recombinant human G9a protein (Homo sapiens, UniProt Q96KQ7)
T1 construct: purchased BPS Bioscience Inc. #51001
T1 sequence (Q96KQ7 785-1210 limits assumed): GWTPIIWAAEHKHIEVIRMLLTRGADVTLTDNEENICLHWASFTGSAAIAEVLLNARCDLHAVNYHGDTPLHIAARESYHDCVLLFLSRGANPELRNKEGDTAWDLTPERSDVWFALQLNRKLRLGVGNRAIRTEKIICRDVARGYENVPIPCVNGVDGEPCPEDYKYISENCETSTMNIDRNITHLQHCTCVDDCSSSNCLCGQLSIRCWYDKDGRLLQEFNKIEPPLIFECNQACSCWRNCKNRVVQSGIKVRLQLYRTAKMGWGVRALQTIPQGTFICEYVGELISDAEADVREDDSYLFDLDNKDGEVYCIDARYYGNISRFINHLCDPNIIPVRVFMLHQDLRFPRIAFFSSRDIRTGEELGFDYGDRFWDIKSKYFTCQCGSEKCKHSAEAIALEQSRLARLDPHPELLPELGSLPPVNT
Experiment: G9a inhibitory activity test (ALPHA)
Type: biochemical
Settings: biotinylated histone H3 peptide (1-21), SAM, read-out: Inhibitory activity (G9a IC50 value)
Description: The G9a inhibitory activity of each compound was evaluated by measuring the enzymatic activity of G9a by amplified luminescence proximity homogeneous assay (ALPHA). First, 7.5 μL of a dilution of recombinant human G9a protein (BPS Bioscience Inc., #51001) diluted to 0.05 to 0.1 nM with a Tris buffer solution (50 mM Tris-HCl [pH 9.0], 50 mM NaCl, 0.01% Tween-20, 1 mM DTT), and 0.5 μL of the test compound were added to each well of a 384-well microplate (AlphaPlate-384 Shallow Well, PerkinElmer, Inc., #6008359), mixed by vortex, and incubated at room temperature for 10 minutes. 500 nM biotinylated histone H3 peptide (1-21) (AnaSpec Inc., #61702) and 150 μM SAM (Sigma-Aldrich Co. LLC, #A7007) were mixed at 1:1 in advance, and 2 μL of the mixture was added to each well, mixed by vortex, and then incubated at room temperature for 1 hour. AlphaLISA anti-H3K9me2 acceptor beads (PerkinElmer, Inc., #AL117C) and AlphaScreen streptavidin donor beads (PerkinElmer, Inc., #6760002B) were each diluted with an epigenetic buffer (PerkinElmer, Inc., AlphaLISA Epigenetics Buffer Kit #AL008C) to a final concentration of […] after addition. These dilutions were added to the reaction solution in the dark and incubated at room temperature for 1 hour in the dark. Then, measurement was performed using the EnSpire Alpha plate reader (PerkinElmer, Inc., Waltham, Mass., USA). The G9a inhibitory activity of the test compound was calculated as a compound concentration necessary for suppressing G9a enzymatic activity by 50% (IC50 value), by determining the percent inhibition of the compound when the value of a control without the addition of the compound was defined as 0% and the value of a control without the addition of the enzyme was defined as 100%.

Row | IC50 [µM] | Compound
1 | ≥ 0.2 | CCCCC(NC(=O)c1[nH]c2c(c1C)C(=O)CC(C)(C)C2)C(=O)Nc1ccc2[nH]ncc2c1 (stereo not drawn) [Example 1-91]
2 | ≥ 0.2 | CCCCC(NC(=O)c1[nH]c2c(c1C)C(=O)CC(C)(C)C2)C(=O)NCc1ccccc1 (stereo not drawn) [Example 1-39]
3 | ≥ 0.2 | Cc1c(C(=O)NC(CCC2CC2)C(=O)N2CCc3cc(C#N)ccc32)[nH]c2c1C(=O)CC(C)(C)C2 (stereo not drawn) [Example 1-64]
4 | ≥ 0.2 | Cc1c(C(=O)NC(CCC2CC2)C(=O)NC2(c3ccc(C#N)cc3)CC2)[nH]c2c1C(=O)CC(C)(C)C2 (stereo not drawn) [Example 1-69]
5 | < 0.05 | CCCCC(NC(=O)c1[nH]c2c(c1C)C(=O)CC(C)(C)C2)C(=O)Nc1ccc(OC2CCN(C)CC2)cc1 (stereo not drawn) [Example 1-32]
6 | ≥ 0.2 | CCCCC(NC(=O)c1[nH]c2c(c1C)C(=O)CC(C)(C)C2)C(=O)Nc1cccc2ccccc12 (stereo not drawn) [Example 1-31]
7 | ≥ 0.2 | CCCCC(NC(=O)c1[nH]c2c(c1C)C(=O)CC(C)(C)C2)C(=O)Nc1nn(CC)c2ccccc12 (stereo not drawn) [Example 1-97]
8 | 0.05 to 0.2 | CCCCC(NC(=O)c1[nH]c2c(c1C)C(=O)CC(C)(C)C2)C(=O)Nc1ccc(OC2CCN(C)CC2)nc1 (stereo not drawn) [Example 1-6]
9 | ≥ 0.2 | CCCCC(NC(=O)c1[nH]c2c(c1C)C(=O)CC(C)(C)C2)C(=O)NC1CCN(CCCN2CCCC2)CC1 (stereo not drawn) [Example 1-56]
10 | ≥ 0.2 | CCCCC(NC(=O)c1[nH]c2c(c1C)C(=O)CC(C)(C)C2)C(=O)NCc1ccc(OC)cc1 (stereo not drawn) [Example 1-46]
11 | ≥ 0.2 | CCCCC(NC(=O)c1[nH]c2c(c1C)C(=O)CC(C)(C)C2)C(=O)Nc1ccccc1CN1CCN(C)CC1 (stereo not drawn) [Example 1-102]
12 | 0.05 to 0.2 | Cc1c(C(=O)NC(CCC2CC2)C(=O)Nc2ccc(N(C)C)nc2)[nH]c2c1C(=O)CC(C)(C)C2 (stereo not drawn) [Example 1-74]
13 | < 0.05 | O=C(NC(CCC1CC1)C(=O)Nc1ccc(O)nc1)c1ccc(Nc2ccncc2)cc1 (stereo not drawn) [Example 1-89]
14 | ≥ 0.2 | CCCCC(NC(=O)c1[nH]c2c(c1C)C(=O)CC(C)(C)C2)C(=O)Nc1cccc2[nH]ccc12 (stereo not drawn) [Example 1-90]
15 | < 0.05 | CCCCC(NC(=O)c1[nH]c2c(c1C)C(=O)CC(C)(C)C2)C(=O)Nc1ccc(N(C)C2CCN(C)CC2)nc1 (stereo not drawn) [Example 1-20]
16 | ≥ 0.2 | CCCCC(NC(=O)c1[nH]c2c(c1C)C(=O)CC(C)(C)C2)C(=O)Nc1ccccc1C(C)C (stereo not drawn) [Example 1-12]
17 | < 0.05 | CCCCC(NC(=O)c1[nH]c2c(c1C)C(=O)CC(C)(C)C2)C(=O)NCc1ccc(CN(C)C)cc1 (stereo not drawn) [Example 1-51]

Same assay, conditions: read-out: Inhibitory activity (G9a IC50)

Row | IC50 [µM] | Compound
18 | ≥ 0.2 | CCCCC(NC(=O)c1[nH]c2ccc(OC)cc2c1C)C(=O)Nc1ccc(OC2CCN(C)CC2)nc1 (stereo not drawn) [Example 6-93]
19 | ≥ 0.2 | CCCC[C@H](NC(=O)c1[nH]c2c(c1C)C(=O)CC1(CCOCC1)C2)C(=O)N[C@@H](C)c1ccccc1 [Example 6-44]
20 | < 0.05 | CCCC[C@H](NC(=O)c1[nH]c2c(c1C)C(=O)CC(C)(C)C2)C(=O)Nc1ccc(OC2CNC2)nc1 [Example 26-2]
21 | 0.05 to 0.2 | CCCCC(NC(=O)Cc1ccccc1)C(=O)Nc1ccc(OC2COC2)nc1 (stereo not drawn) [Example 10, N-[6-(oxetan-3-yloxy)pyridin-3-yl]-2-[(2-phenylacetyl)amino]hexaneamide]
22 | ≥ 0.2 | CCCCC(NC(=O)c1ccc(N2CCN(C)CC2)cc1)C(=O)Nc1ccc(OC2CCN(C)CC2)nc1 (stereo not drawn) [Example 6-98]
23 | 0.05 to 0.2 | CCCC[C@H](NC(=O)c1[nH]c2c(c1CC)C(=O)CC(C)(C)C2)C(=O)N[C@@H](C)c1ccccc1 [Example 6-40]
24 | ≥ 0.2 | CCCCC(NC(=O)Cc1ccc(Cl)cc1)C(=O)Nc1ccc(OC2CCN(C)CC2)nc1 (stereo not drawn) [Example 11-9]
25 | ≥ 0.2 | CCCC[C@H](NC(=O)c1[nH]c2c(c1C)C(=O)CC(C)(C)C2)C(=O)N1CCc2c(OCCN(C)C)cccc21 [Example 6-102]
26 | ≥ 0.2 | CCCC[C@H](NC(=O)c1[nH]c2c(c1C)C(=O)CC(C)(C)C2)C(=O)NCc1ccc(N2CCN(CC(C)C)CC2)cc1 [Example 22-1]
27 | < 0.05 | CCCCC(NC(=O)c1[nH]c2c(c1C)C(=O)CC(C)(C)C2)C(=O)NCc1ccc(CN2CCC(C)(C)CC2)cc1 (stereo not drawn) [Example 18-13]
28 | ≥ 0.2 | CCCCC(NC(=O)c1[nH]c2c(c1C)C(=O)CC(C)(C)C2)C(=O)NCc1cccc(CN(C)C)n1 (stereo not drawn) [Example 4, N-[1-[[6-[(dimethylamino)methyl]pyridine-2yl]methylamino]-1-oxohexan-2-yl]-3,6,6-trimethyl-4-oxo-5,7-dihydro-1H-indole-2-carboxamide]
29 | ≥ 0.2 | Cc1c(C(=O)NC(CCC(C)C)C(=O)Nc2ccccc2)[nH]c2c1C(=O)CC(C)(C)C2 (stereo not drawn) [Example 6-25]
30 | ≥ 0.2 | CCCC[C@H](NC(=O)c1[nH]c2c(c1C)C(=O)CC(C)(C)C2)C(=O)N1CCc2c(OCCN3CCCCC3)cccc21 [Example 6-104]
31 | ≥ 0.2 | CCCCC(NC(=O)c1[nH]c2c(c1C)C(=O)CC(C)(C)C2)C(=O)Nc1ccccc1CN(C)C (stereo not drawn) [Example 5-3]
32 | ≥ 0.2 | Cc1c(C(=O)NC(CCC2CCC2)C(=O)Nc2ccccc2)[nH]c2c1C(=O)CC(C)(C)C2 (stereo not drawn) [Example 6-24]
33 | ≥ 0.2 | COC(=O)c1ccc2c(c1)nc(C(CCC1CC1)NC(=O)c1[nH]c3c(c1C)C(=O)CC(C)(C)C3)n2C (stereo not drawn) [Example 30-3]
34 | < 0.05 | Cc1c(C(=O)NC(CCC2CC2)C(=O)Nc2cccc(CN(C)C)c2)[nH]c2c1C(=O)CC(C)(C)C2 (stereo not drawn) [Example 1-137]

Row | IC50 [µM] | Compound
35 | ≥ 0.2 | COc1ccc(NC(=O)C(CCC2CC2)NC(=O)c2ccc(C3CCN(C)CC3)cc2)cn1 (stereo not drawn) [Example 6-69]
36 | 0.05 to 0.2 | Cc1cc(C)c(NC(=O)C(CCC2CC2)NC(=O)c2[nH]c3c(c2C)C(=O)CC(C)(C)C3)cn1 (stereo not drawn) [Example 6-14]
37 | ≥ 0.2 | CCCCC(NC(=O)c1[nH]c2c(c1C)C(=O)CC(C)(C)C2)C(=O)NCc1ccc(C(=O)OC)cc1 (stereo not drawn) [Example 6-21]
38 | 0.05 to 0.2 | CCCCC(NC(=O)C(c1ccccc1)c1ccccc1)C(=O)Nc1ccc(OC)nc1 (stereo not drawn) [Example 7, 2-[(2,2-diphenylacetyl)amino]-N-(6-methoxypyridin-3-yl)hexaneamide]
39 | ≥ 0.2 | CCCC[C@H](NC(=O)c1[nH]c2c(c1C)C(=O)CC(C)(C)C2)C(=O)Nc1cccc(N2CCN(C)CC2)c1 [Example 6-48]
40 | < 0.05 | COc1ccc(NC(=O)C(CCC2CC2)NC(=O)c2ccc(Nc3ccncc3)cc2Cl)cn1 (stereo not drawn) [Example 6-77]
41 | ≥ 0.2 | COc1ccc(NC(=O)C(CCC2CC2)NC(=O)c2ccc(Nc3ccncc3C(F)(F)F)cc2)cn1 (stereo not drawn) [Example 6-71]
42 | ≥ 0.2 | CCCCC(NC(=O)c1[nH]c2c(c1C)C(=O)CC(C)(C)C2)C(=O)N[C@H](CO)c1ccccc1 (stereo partly drawn) [Example 3-2]
43 | 0.05 to 0.2 | Cc1c(C(=O)NC(CCC2CC2)C(=O)N2CCc3c(OCCN4CCCCC4)cccc32)[nH]c2c1C(=O)CC(C)(C)C2 (stereo not drawn) [Example 1-123]
44 | ≥ 0.2 | CCCCC(NC(=O)c1[nH]c2c(c1C)C(=O)CC(C)(C)C2)C(=O)Nc1ccnc2ccccc12 (stereo not drawn) [Example 9-1, 3,6,6-trimethyl-4-oxo-N-[1-oxo-1-(quinolin-4-ylamino)hexan-2-yl]-5,7-dihydro-1H-indole-2-carboxamide]
45 | ≥ 0.2 | COc1ccc2c(c1)N(C(=O)C(CCC1CC1)NC(=O)c1[nH]c3c(c1C)C(=O)CC(C)(C)C3)CC2 (stereo not drawn) [Example 1-131]
46 | 0.05 to 0.2 | CCCC[C@H](NC(=O)c1[nH]c2c(c1C)C(=O)CC(C)(C)C2)C(=O)N[C@@H](CO)c1ccccc1 [Example 6-45]
47 | 0.05 to 0.2 | CCc1c(C(=O)NC(CCC2CC2)C(=O)N2CCc3c(OCCN(C)C)cccc32)[nH]c2c1C(=O)CC(C)(C)C2 (stereo not drawn) [Example 1-141]
48 | 0.05 to 0.2 | Cc1c(C(=O)NC(CCC2CC2)C(=O)N2CCc3c(OCCN(C)C)cccc32)[nH]c2c1C(=O)CC(C)(C)C2 (stereo not drawn) [Example 1-122]
49 | ≥ 0.2 | CCCCC(NC(=O)c1[nH]c2c(c1C)C(=O)CC(C)(C)C2)C(=O)Nc1ccccc1C(F)F (stereo not drawn) [Example 5-1, N-[1-[2-(difluoromethyl)anilino]-1-oxohexan-2-yl]-3,6,6-trimethyl-4-oxo-5,7-dihydro-1H-indole-2-carboxamide]
50 | 0.05 to 0.2 | CCCC[C@H](NC(=O)c1[nH]c2c(c1CCC)C(=O)CC(C)(C)C2)C(=O)N[C@@H](C)c1ccccc1 [Example 6-42]
51 | ≥ 0.2 | COc1ccc(NC(=O)C(CCC2CC2)NC(=O)c2ccc(OCCCN(C)C)cc2)cn1 (stereo not drawn) [Example 6-72]
